Data published in patent US6524585B1, “Indolicidin analogs and methods of using same” (The Regents of the University of California, priority 1998, dated 2003).
“Also recorded” adds a separate entry of the source. Non-standard residues stand in square brackets, D forms with d. No end group written: not given here. hSer = N[C@@H](CCO)C(=O)O

What was measured:
Assay type in all cases: cell-based
[1] = system: microorganisms; experiment: antimicrobial activity, microbicidal or microbial inhibition assays (overall statements); settings: overall statement, microorganism not specified
Protocol: (§1) The antimicrobial activity of the indolicidin analogs was determined using microbicidal or microbial inhibition assays. The indolicidin analogs initially were characterized using a microbial inhibition method, including a modified plate diffusion assay (Hultmark et al., EMBO J. 2:571-573 (1983); Lehrer et al., J. Immunol. Meth. 137:167-173 (1991), each of which is incorporated herein by reference).
(§2) Nutrient-containing agar (or agarose) plates were seeded with a selected target microorganism and peptide samples (5-10 μl) were placed into small wells formed in the solid medium. Following an initial incubation interval of 1 to 4 hr, the well-containing layer was overlayed with enriched (2× normal) solid medium in order to support microbial growth outside the perimeter of inhibition. After overnight incubation at 30° C. to 37° C., the antimicrobial activity was quantitated by measuring the clear zones around each well (zone of inhibition).
Microbicidal activity was measured by first incubating the target organism with an indolicidin analog in an aqueous suspension, then plating the suspension to quantitate surviving microorganisms. Cultures were grown to mid log phase in an appropriate medium, harvested, washed, and resuspended to 1-2×10^7 colony forming units (CFU) per ml. To conserve peptide, the incubation volume usually was 0.05 ml, with the final cell concentration being 1-2×10^6CFU/ml. Peptide stock solutions, usually made up in 0.01% acetic acid, were diluted in the incubation buffer to a final concentration of 1 μg/ml to 100 μg/ml, and the incubation was initiated by addition of an appropriate volume of the bacterial or fungal stock suspension to the prewarmed (37° C.) peptide-buffer mixture. At timed intervals, 50 μl or 100 μl samples were removed and diluted serially, then plated on nutrient-containing agar plates. Killing activity was quantitated by determining the reduction in CFU relative to appropriate control incubations.

[2] = system: fungi such as Cryptococcus; experiment: antimicrobial activity against fungi
[3] = system: Staphylococccus aureus; experiment: agar diffusion assay (zone of inhibition); settings: S. aureus
Protocol: as §1, §2

Substance	antimicrobial activity [1]	antimicrobial activity against fungi such as Cryptococcus [2]	antimicrobial activity (growth inhibition, zone of inhibition) [3]
Indol 1-13/F-Hse: Indol 1-13/F peptide with a carboxy terminal homoserine, produced by cyanogen bromide cleavage (ILPFKFPFFPFRR[hSer])	have antimicrobial activity		
Leu-Pro-Phe-Lys-Phe-Pro-Phe-Phe-Pro-Phe-Arg-Arg-NH2 (LPFKFPFFPFRR-NH2) [Indol 2-13/F]	exhibits antimicrobial activity		
Leu-Pro-Trp-Lys-Trp-Pro-Trp-Trp-Pro-Trp-Arg-Arg-NH2 (LPWKWPWWPWRR-NH2) [Indol 2-13]	broad spectrum antimicrobial activity; also recorded: exhibits antimicrobial activity		
Lys-Trp-Pro-Trp-Trp-Pro-Trp-Arg-Arg-NH2 (KWPWWPWRR-NH2) [Indol 5-13]	broad spectrum antimicrobial activity; also recorded: exhibits antimicrobial activity		
Lys-Trp-Pro-Trp-Trp-Pro-Trp-Arg-NH2 (KWPWWPWR-NH2) [Indol 5-12]		substantial antimicrobial activity	
Pro-Trp-Lys-Trp-Pro-Trp-Trp-Pro-Trp-Arg-Arg-NH2 (PWKWPWWPWRR-NH2) [Indol 3-13]	broad spectrum antimicrobial activity; also recorded: exhibits antimicrobial activity		
Pro-Trp-Lys-Trp-Pro-Trp-Trp-Pro-Trp-Arg-NH2 (PWKWPWWPWR-NH2) [Indol 3-12]		substantial antimicrobial activity	
Trp-Lys-Trp-Pro-Trp-Trp-Pro-Trp-Arg-Arg-NH2 (WKWPWWPWRR-NH2) [Indol 4-13]	broad spectrum antimicrobial activity; also recorded: exhibits antimicrobial activity		
Trp-Lys-Trp-Pro-Trp-Trp-Pro-Trp-Arg-NH2 (WKWPWWPWR-NH2) [Indol 4-12]		substantial antimicrobial activity	
Trp-Pro-Trp-Trp-Pro-Trp-Arg-NH2 (WPWWPWR-NH2) [Indol 6-12]		substantial antimicrobial activity	
[H2N-]Ile-Leu-Pro-Trp-Lys-Trp-Pro-Trp-Trp-Pro-Trp-Arg-Arg-Hse (ILPWKWPWWPWRRX; C-terminal homoserine; MOD_RES (14) Xaa is homoserine (Hse).) [Indol(1-13)-Hse]	have antimicrobial activity		antimicrobial activity equivalent to that of synthesized Indol 1-13
